Values of other authors in patent US20020032245A1, “Resinate composition” (priority 2000, published 2002).

Question: Which “solubility of indomethacin in water” value does the source give for `COc1ccc2c(c1)c(CC(=O)O)c(C)n2C(=O)c1ccc(Cl)cc1` [indomethacin] here?
Answer: The value was 14 ppm.
